# Reference: ChEMBL document CHEMBL4739716, “Gpr139 receptor modulators” (2020)
# How the values were obtained:
# [1] = molecular target: T1, Probable G-protein coupled receptor 139 (Homo sapiens) (UniProt Q6DWJ6); experiment: Agonist activity at human GPR139 expressed in CHO-K1 cells assessed as increase in calcium flux by calcium 5 dye based FLIPR assay relative to JNJ63533054; type: functional, cell-based; conditions: filed as agonist
# T1 sequence (whole entry): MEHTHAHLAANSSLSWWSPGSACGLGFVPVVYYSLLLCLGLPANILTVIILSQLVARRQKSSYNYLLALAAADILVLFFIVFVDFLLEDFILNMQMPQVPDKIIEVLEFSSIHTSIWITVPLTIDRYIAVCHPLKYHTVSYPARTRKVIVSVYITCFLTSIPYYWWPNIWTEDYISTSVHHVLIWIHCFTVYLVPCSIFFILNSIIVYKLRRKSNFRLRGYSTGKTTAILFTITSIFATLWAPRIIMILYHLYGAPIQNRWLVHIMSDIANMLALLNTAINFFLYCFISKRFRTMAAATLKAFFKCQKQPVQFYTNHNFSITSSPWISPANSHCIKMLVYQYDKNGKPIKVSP
# [2] = molecular target: T2, Probable G-protein coupled receptor 139 (Homo sapiens, UniProt Q6DWJ6); experiment: Agonist activity at human GPR139 expressed in CHO-K1 cells assessed as increase in calcium flux by calcium 5 dye based FLIPR assay; type: functional, cell-based
# T2 sequence (Q6DWJ6 whole entry): T1 sequence (whole entry)
# [3] = molecular target: T1, Probable G-protein coupled receptor 139 (Homo sapiens); experiment: Agonist activity at human GPR139 expressed in CHO-K1 cells assessed as induction of beta-arrestin 2 recruitment incubated for 90 mins by PathHunter assay relative to JNJ63533054; type: cell-based
# [4] = molecular target: T3, Probable G-protein coupled receptor 139 (Rattus norvegicus, UniProt P0C0W8); experiment: Agonist activity at rat GPR139 expressed in CHO-K1 cells assessed as increase in calcium flux by calcium 5 dye based FLIPR assay; type: cell-based
# T3 sequence (P0C0W8 whole entry): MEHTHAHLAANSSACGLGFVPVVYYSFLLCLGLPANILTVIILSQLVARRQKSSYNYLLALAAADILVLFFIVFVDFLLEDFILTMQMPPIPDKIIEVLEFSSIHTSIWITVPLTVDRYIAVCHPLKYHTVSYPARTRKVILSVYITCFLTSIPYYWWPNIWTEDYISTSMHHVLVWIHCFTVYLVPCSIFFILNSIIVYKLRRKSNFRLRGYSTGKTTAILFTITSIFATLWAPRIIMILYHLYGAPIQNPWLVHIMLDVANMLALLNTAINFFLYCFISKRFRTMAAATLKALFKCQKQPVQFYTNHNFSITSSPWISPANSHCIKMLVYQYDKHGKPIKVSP
# [5] = molecular target: T4, Probable G-protein coupled receptor 139 (Rattus norvegicus) (UniProt P0C0W8); experiment: Agonist activity at rat GPR139 expressed in CHO-K1 cells assessed as increase in calcium flux by calcium 5 dye based FLIPR assay relative to JNJ63533054; type: cell-based
# T4 sequence (whole entry): T3 sequence (P0C0W8 whole entry)
# [6] = molecular target: T2, Probable G-protein coupled receptor 139; experiment: Agonist activity at human GPR139 expressed in CHO-K1 cells assessed as induction of beta-arrestin 2 recruitment incubated for 90 mins by PathHunter assay; type: cell-based
SMILES,Emax [1] [%],EC50 ([2]; cho-k1) [nM],Emax ([3]; filed as agonist) [%],EC50 ([4]; cho-k1) [nM],Emax ([5]; filed as agonist) [%],EC50 [6] [nM],Emax [3] [%],EC50 [4] [nM],Emax [5] [%],EC50 [2] [nM],EC50 ([6]; cho-k1) [nM]
C[C@H](NC(=O)Cn1nc2ncc(F)cn2c1=O)c1ccc(OC(F)(F)F)cc1,> 80,1,–,–,–,≥ 100,25,≥ 100,25,–,–
Cc1cnn2c(=O)n(CC(=O)N[C@@H](C)c3ccc(OC(F)(F)F)cc3)nc2c1,> 80,1,50,–,50,≥ 100,–,≥ 100,–,–,–
C[C@H](NC(=O)Cn1nc2ccccn2c1=O)c1ccc(F)cc1,50,10,–,–,–,≥ 100,< 25,≥ 100,25,–,–
C[C@H](NC(=O)Cn1nc2cc(N3CCN(C)CC3)ccn2c1=O)c1ccc(OC(F)(F)F)cc1,50,–,–,–,50,≥ 100,25,≥ 100,–,≥ 100,–
COc1ccn2c(=O)n(CC(=O)N[C@@H](C)c3c(C)cc(C)cc3C)nc2c1,50,–,–,10,–,–,25,–,25,≥ 100,10
O=C(Cn1nc2cccnn2c1=O)NC1(c2cccc(Cl)c2)CC1,50,–,–,–,50,≥ 100,< 25,≥ 100,–,≥ 100,–
C[C@H](NC(=O)Cn1nc2ccc(F)cn2c1=O)c1ccc(C(F)(F)F)cc1,> 80,1,50,1,50,< 1,–,–,–,–,–
COc1cccc2nn(CC(=O)N[C@@H](C)c3ccc(C)cc3)c(=O)n12,> 80,–,–,1,50,–,25,–,–,< 1,1
C[C@H](NC(=O)Cn1nc2ccc(F)cn2c1=O)c1ccc(OC(F)(F)F)cc1,> 80,–,50,1,50,–,–,–,–,< 1,1
C[C@H](NC(=O)Cn1nc2cc(N3CCC[C@@H](O)C3)ccn2c1=O)c1ccc(OC(F)(F)F)cc1,> 80,1,> 80,1,> 80,≥ 100,–,–,–,–,–
Cc1ccc([C@H](C)NC(=O)Cn2nc3cc(C)ccn3c2=O)cc1,> 80,–,50,–,50,–,–,< 1,–,< 1,1
COc1ccn2c(=O)n(CC(=O)N[C@@H](C)c3ccc(OC(F)(F)F)cc3)nc2n1,50,–,–,1,–,< 1,25,–,25,< 1,–
CNc1cccn2c(=O)n(CC(=O)N[C@@H](C)c3ccc(C)cc3)nc12,> 80,–,> 80,–,> 80,–,–,< 1,–,< 1,1

# Next, values leading:
Emax [1] [%],EC50 ([2]; cho-k1) [nM],Emax ([3]; filed as agonist) [%],EC50 ([4]; cho-k1) [nM],Emax ([5]; filed as agonist) [%],EC50 [6] [nM],Emax [3] [%],EC50 [4] [nM],Emax [5] [%],EC50 [2] [nM],EC50 ([6]; cho-k1) [nM],SMILES
> 80,1,50,1,50,≥ 100,–,–,–,–,–,C[C@H](NC(=O)Cn1nc2cccnn2c1=O)c1ccc(C2CC2)c(F)c1
> 80,1,–,1,50,≥ 100,25,–,–,–,–,C[C@H](NC(=O)Cn1nc2cc(Cl)cnn2c1=O)c1ccc(OC(F)(F)F)cc1
> 80,–,> 80,1,> 80,–,–,–,–,< 1,10,C[C@H](NC(=O)Cn1nc2c(NC3COC3)ccnn2c1=O)c1ccc(Cl)c(F)c1
> 80,1,> 80,–,> 80,–,–,< 1,–,–,1,C[C@H](NC(=O)Cn1nc2ccccn2c1=O)c1ccc(Cl)c(F)c1
> 80,–,50,1,50,< 1,–,–,–,< 1,–,COc1ccc2nn(CC(=O)N[C@@H](C)c3ccc(Cl)c(F)c3)c(=O)n2n1
> 80,1,50,10,–,–,–,–,25,–,1,Cc1cnc2nn(CC(=O)N[C@@H](C)c3ccc(OC(F)(F)F)c(F)c3)c(=O)n2c1
> 80,–,50,1,> 80,–,–,–,–,< 1,1,C[C@H](NC(=O)Cn1nc2cc(Cl)cnn2c1=O)c1ccc(Cl)c(F)c1
> 80,–,> 80,–,> 80,–,–,< 1,–,< 1,1,C[C@H](NC(=O)Cn1nc2ccc(F)cn2c1=O)c1ccc(Cl)c(F)c1
> 80,1,50,1,> 80,–,–,–,–,–,10,C[C@H](NC(=O)Cn1nc2cccnn2c1=O)c1ccc(Cl)c(F)c1
> 80,–,> 80,1,> 80,–,–,–,–,< 1,1,Cc1ccc([C@H](C)NC(=O)Cn2nc3ccccn3c2=O)cc1Cl
> 80,–,> 80,–,> 80,–,–,< 1,–,< 1,1,C[C@H](NC(=O)Cn1nc2cc(C3CC3)cnn2c1=O)c1ccc(Cl)c(F)c1
> 80,1,–,1,50,–,25,–,–,–,1,Cc1ccc2nn(CC(=O)N[C@@H](C)c3ccc(Cl)cc3)c(=O)n2n1
> 80,1,50,1,50,–,–,–,–,–,10,C[C@H](NC(=O)[C@@H](C)n1nc2ncccn2c1=O)c1ccc(Cl)c(F)c1
> 80,1,50,1,50,–,–,–,–,–,10,Cc1ccc([C@H](C)NC(=O)Cn2nc3cccnn3c2=O)cc1F
> 80,–,> 80,1,> 80,–,–,–,–,< 1,10,Cc1ccnn2c(=O)n(CC(=O)N[C@@H](C)c3ccc(Cl)c(F)c3)nc12
